Read-outs that look alike come from different tables or passages of the source.
Assays:
S. pasteurii urease = target: T1, S. pasteurii urease (Sporosarcina pasteurii, UniProt P41020); experiment: Purified S. pasteurii urease inhibition, cresol red assay, no preincubation; assay type: biochemical, Sporosarcina pasteurii CCM 2056; settings: native purified urease, slow-binding, read-out: K i, S. pasteurii urease
T1 construct: The native urease, purified from S. pasteurii CCM 2056; made in house; host or cells: Sporosarcina pasteurii CCM 2056 (native, endogenous enzyme, not recombinant)
T1 sequence (P41020 whole entry): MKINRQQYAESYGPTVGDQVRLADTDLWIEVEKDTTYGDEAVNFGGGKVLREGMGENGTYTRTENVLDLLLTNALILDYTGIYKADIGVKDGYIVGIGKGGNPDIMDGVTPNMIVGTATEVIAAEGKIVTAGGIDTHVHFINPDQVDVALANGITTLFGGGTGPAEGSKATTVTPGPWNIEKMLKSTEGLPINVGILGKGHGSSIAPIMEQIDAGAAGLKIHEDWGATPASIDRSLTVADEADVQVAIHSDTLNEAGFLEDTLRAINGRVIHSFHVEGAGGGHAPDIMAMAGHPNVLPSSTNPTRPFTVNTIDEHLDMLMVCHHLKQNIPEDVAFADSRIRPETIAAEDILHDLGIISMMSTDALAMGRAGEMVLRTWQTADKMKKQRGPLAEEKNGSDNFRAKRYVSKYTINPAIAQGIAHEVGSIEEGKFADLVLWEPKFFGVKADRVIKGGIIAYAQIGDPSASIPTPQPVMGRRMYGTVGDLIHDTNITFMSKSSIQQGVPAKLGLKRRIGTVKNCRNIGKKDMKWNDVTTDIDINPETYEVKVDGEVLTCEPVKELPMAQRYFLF
T1 sequence (P41022 whole entry, further chain): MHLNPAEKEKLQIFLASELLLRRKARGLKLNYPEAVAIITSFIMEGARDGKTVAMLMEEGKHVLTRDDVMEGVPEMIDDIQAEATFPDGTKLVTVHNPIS
T1 sequence (P41021 whole entry, further chain): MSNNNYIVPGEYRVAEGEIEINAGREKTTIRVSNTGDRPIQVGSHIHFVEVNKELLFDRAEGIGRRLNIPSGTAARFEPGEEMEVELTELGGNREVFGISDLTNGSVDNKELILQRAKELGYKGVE
Protocol: compounds. Helicobacter pylori 2CLM belongs to the collection of the Department of Microbiology, Wrocław Medical University, Poland.
Purification of S. pasteurii urease
The native urease from the cells of S. pasteurii was induced and purified in a five-step chromatographic procedure, as previously described.S5 The protein concentration was […]
(§1) Enzymatic activity assays
(§2) Purified urease activity with the addition of the organoselenium compounds studied was measured using cresol red as an indicator of pH changes caused by ammonia produced during ureolysis.S6 The reaction was carried out in 3 mM phosphate buffer containing 30 mM urea, 0.01 % w/v cresol red, purified urease (at a concentration that led to a change in A570 of approximately 1.5 in 90 min) and studied compounds at various concentrations. The reaction was followed by using a TECAN Sunrise spectrometer , and the resulting progress curves were further analyzed to determine the activity and binding mechanism. The rea ction was followed in a system without preincubation of the enzyme with the benzisoselenazolone derivatives (addition of urease initiated the measurement).
The progress curves were fitted to the following equation to calculate the apparent reaction rate constants ( kapp):
P = v ∗ t + 0 s ∗ (1 − e−kapp∗t)
P – product concentration; t – time; v0 – initial state velocity; vs – steady state velocity.
The kapp values were then plotted against the inhibitor concentration [I], and the resulting linear function was used to calculate the dissociation […] of the EI complex (Ki): […]

[1] = tested on: H. pylori Tx30a (ATCC 51932) live cells; experiment: Whole cell ureolysis assay, cresol red; assay type: cell-based, Helicobacter pylori
Protocol: as §1
as §2, with “measurement). […]” for “measurement).”
Whole cell ureolysis assays
To measure the inhibitory activity of the compounds studied against whole cells of ureolytic pathogens, the cresol red reaction was carried out using H. pylori cells that were washed twice with 10 mM PBS and used as a biocatalyst.S6 The reaction mixture contained 10 mM PBS, 10 […]
mM urea, bacterial cells, and urease inhibitors. The results were then used to calculate the IC50 values of the organoselenium compounds against the whole cell ureolysis of H. pylori. […]

[2] = tested on: multidrug-resistant clinical isolate H. pylori 2CML; experiment: Antimicrobial activity alone and in combination with antibiotics, checkerboard method; assay type: cell-based, Helicobacter pylori; settings: for MIC: Helicobacter pylori
Protocol: Combination of drugs against H. pylori 2CML
A multidrug-resistant clinical isolate H. pylori 2CML from the collection of the Department of Microbiology, Wrocław Medical University)S7 was used to assess the antimicrobial activity of compounds 1 and 4m, in combination with Clarithromycin, Metronidazole, and Levofloxacin (Sigma-Aldrich). The experiments were carried out on flat-bottom 12-well microtiter plates (Bionovo, Legnica, Poland), arranged in a 48-well panel to use the checkboard method.S8 […]
the selected antibiotic were placed in external wells along the x- and y-axes, respectively. The remaining wells contained varying concentrations of both compounds. Each well consisted of 1 mL of Brain Heart Infusion (Oxoid, Le Pont de Claix , France) broth with 5% foetal calf serum (Gibco, Paisley, Scotland, UK) , a bacterial suspension of 10^7 CFU/mL and the desired concentration of the antimicrobial (s) tested. Following the setup, the plates were incubated for 3 days at 37 °C under microaerophilic conditions (GENbox microaer kits, BioMerrieux, Marcy l’Etoile, France), shaking at 100 rpm.
The minimum inhibitory concentration (MIC) was determined as the lowest concentration in which no microbial growth was observed .
The interactions between antimicrobials were interpreted b y calculation of the fractional inhibitory concentration (FIC) index (FICI), defined as FICI = FICA + FICB (FICA = MIC of substance A in combination / MIC of substance A alone, FICB = MIC of substance B in combination / MIC of substance B alone). FICI ≤0.5 was considered as synergism; >0.5 but ≤1 as additivity, while […] as neutral.

[3] = tested on: Proteus mirabilis pathogenic cells; settings: previously reported by the authors; reference number not given; read-out: IC50, ureolysis in Proteus mirabilis pathogenic cells; cited from earlier work
[4] = Helicobacter pylori, ATCC51932, read-out: IC50, H. pylori whole-cell ureolysis, live cells of H. pylori Tx30a
[5] = read-out: IC50, H. pylori whole-cell ureolysis, live cells of H. pylori Tx30a
[6] = pair 4m + Clarithromycin, H. pylori 2CML
[7] = pair 4m + Levofloxacin, H. pylori 2CML
[8] = pair 4m + Metronidazole, H. pylori 2CML
[9] = 72 h, H. pylori 2CML, single agent, read-out: MIC Alone
[10] = H. pylori 2CML, single agent, read-out: MIC Alone
[11] = pair Ebselen + Clarithromycin, H. pylori 2CML
[12] = pair Ebselen + Levofloxacin, H. pylori 2CML
[13] = pair Ebselen + Metronidazole, H. pylori 2CML

`O=c1c2ccccc2[se]n1Cc1ccccc1F` [4a] showed a Ki (S. pasteurii urease) of 3.61 ± 0.28 nM and an IC50 [1, 4] of 171 ± 5.4 nM.

Work on `O=c1c2ccccc2[se]n1Cc1cccc(F)c1` [4b] yielded a Ki (S. pasteurii urease) of 12.2 ± 0.4 nM and an IC50 [1, 4] of 154 ± 8.4 nM.

Compound `O=c1c2ccccc2[se]n1Cc1cccc(C(F)(F)F)c1` [4c] has a Ki (S. pasteurii urease) of 2.5 ± 0.24 nM and an IC50 [1, 4] of 112 ± 2.4 nM.

Work on `O=c1c2ccccc2[se]n1Cc1ccc(F)cc1` [4d] yielded a Ki (S. pasteurii urease) of 25.4 ± 2.8 nM and an IC50 [1, 4] of 193 ± 8.1 nM.

With `O=c1c2ccccc2[se]n1Cc1ccc(C(F)(F)F)cc1` [4e] the Ki (S. pasteurii urease) was 2.1 ± 0.19 nM and the IC50 [1, 4] was 170 ± 1.6 nM.

`O=c1c2ccccc2[se]n1Cc1ccc(Cl)cc1Cl` [4f] gave a Ki (S. pasteurii urease) of 0.594 ± 0.032 nM and an IC50 [1, 4] of 345 ± 16 nM.

Work on `O=c1c2ccccc2[se]n1Cc1ccc(F)cc1F` [4g] yielded a Ki (S. pasteurii urease) of 2.52 ± 0.19 nM and an IC50 [1, 4] of 287 ± 18 nM.

With `O=c1c2ccccc2[se]n1Cc1cc(Cl)ccc1Cl` [4h] the Ki (S. pasteurii urease) was 9.04 ± 0.22 nM and the IC50 [1, 4] was 341 ± 23 nM.

`O=c1c2ccccc2[se]n1Cc1cc(F)ccc1Cl` [4i] showed a Ki (S. pasteurii urease) of 0.543 ± 0.015 nM, an IC50 [1, 4] of less than 100 nM and an IC50 [1, 5] of 96.4 ± 1.7 nM.

`O=c1c2ccccc2[se]n1Cc1c(F)cccc1F` [4j] showed a Ki (S. pasteurii urease) of 1.16 ± 0.14 nM and an IC50 [1, 4] of 218 ± 14 nM.

Work on `O=c1c2ccccc2[se]n1Cc1ccc(Cl)c(Cl)c1` [4k] yielded a Ki (S. pasteurii urease) of 15.9 ± 0.65 nM and an IC50 [1, 4] of 315 ± 4.7 nM.

Work on `O=c1c2ccccc2[se]n1Cc1ccc(F)c(F)c1` [4l] yielded a Ki (S. pasteurii urease) of 3.35 ± 0.65 nM and an IC50 [1, 4] of 110 ± 4.5 nM.

`O=c1c2ccccc2[se]n1Cc1ccc(C(F)(F)F)c(F)c1` [4m] gave an MIC ([2]; 72 h, read-out: MIC Alone) of 1.17 µg/mL, an MIC ([2]; read-out: MIC Alone) of 1.17 µg/mL and an MIC ([2]; read-out: MIC alone) of 3.12 µM. For the same compound, the FIC ([2]; pair 4m + Clarithromycin) was 0.0625, the FICI ([2]; pair 4m + Clarithromycin) was 0.562 and the Interpretation ([2]; pair 4m + Clarithromycin) was “Additive (>0.5 but ≤1 as additivity)”. For the same compound, the “MIC Combination” value [2, 6] was 0.0731 µg/mL, the MIC in combination [2, 6] was 0.2 µM and the FIC ([2]; pair 4m + Levofloxacin) was 0.5. For the same compound, the FICI ([2]; pair 4m + Levofloxacin) was 1, the “Fold change of MIC (reduction)” value ([2]; pair 4m + Levofloxacin) was “×2↓” and the Interpretation ([2]; pair 4m + Levofloxacin) was “Additive (>0.5 but ≤1 as additivity)”. The “MIC Combination” value [2, 7] was 0.585 µg/mL, the FIC ([2]; pair 4m + Metronidazole) was 0.125 and the FICI ([2]; pair 4m + Metronidazole) was 0.625. For the same compound, the Interpretation ([2]; pair 4m + Metronidazole) was “Additive (>0.5 but ≤1 as additivity)”, the “MIC Combination” value [2, 8] was 0.146 µg/mL and the Ki (S. pasteurii urease) was 15.9 ± 1.9 nM. For the same compound, the IC50 [1, 4] was less than 100 nM and the IC50 [1, 5] was 93.5 ± 5.3 nM.

`O=c1c2ccccc2[se]n1Cc1ccc(Cl)c(C(F)(F)F)c1` [4n] showed a Ki (S. pasteurii urease) of 18.6 ± 0.37 nM and an IC50 [1, 4] of 153 ± 5.4 nM.

For `O=c1c2ccccc2[se]n1Cc1ccc(F)c(C(F)(F)F)c1` [4o], the Ki (S. pasteurii urease) was 2.99 ± 0.088 nM and the IC50 [1, 4] was 107 ± 1.9 nM.

`O=c1c2ccccc2[se]n1Cc1cc(F)cc(F)c1` [4p] showed a Ki (S. pasteurii urease) of 1.3 ± 0.027 nM and an IC50 [1, 4] of 122 ± 4.1 nM.

For `O=c1c2ccccc2[se]n1Cc1cc(C(F)(F)F)cc(C(F)(F)F)c1` [4q], the Ki (S. pasteurii urease) was 3.32 ± 0.29 nM and the IC50 [1, 4] was 208 ± 4.5 nM.

Compound `O=c1c2ccccc2[se]n1Cc1ccc(F)c(F)c1F` [4r] has a Ki (S. pasteurii urease) of 2.94 ± 0.26 nM and an IC50 [1, 4] of 179 ± 3.3 nM.

`CC[C@H]1OC(=O)[C@H](C)[C@@H](O[C@H]2C[C@@](C)(OC)[C@@H](O)[C@H](C)O2)[C@H](C)[C@@H](O[C@@H]2O[C@H](C)C[C@H](N(C)C)[C@H]2O)[C@](C)(OC)C[C@@H](C)C(=O)[C@H](C)[C@@H](O)[C@]1(C)O` [Clarithromycin] gave an MIC [2, 9] of 16 µg/mL, an MIC [2, 10] of 16 µg/mL and an FIC ([2]; pair 4m + Clarithromycin) of 0.5. The “Fold change of MIC (reduction)” value ([2]; pair 4m + Clarithromycin) was “×2↓”, the “MIC Combination” value [2, 6] was 8 µg/mL and the FIC ([2]; pair Ebselen + Clarithromycin) was 0.5. For the same compound, the “Fold change of MIC (reduction)” value ([2]; pair Ebselen + Clarithromycin) was “×2↓” and the “MIC Combination” value [2, 11] was 8 µg/mL.

For `C[C@H]1COc2c(N3CCN(C)CC3)c(F)cc3c(=O)c(C(=O)O)cn1c23` [Levofloxacin], the MIC [2, 9] was 16 µg/mL, the MIC [2, 10] was 16 µg/mL and the FIC ([2]; pair 4m + Levofloxacin) was 0.5. The “Fold change of MIC (reduction)” value ([2]; pair 4m + Levofloxacin) was “×2↓”, the “MIC Combination” value [2, 7] was 8 µg/mL and the FIC ([2]; pair Ebselen + Levofloxacin) was 0.5. The “Fold change of MIC (reduction)” value ([2]; pair Ebselen + Levofloxacin) was “×2↓” and the “MIC Combination” value [2, 12] was 8 µg/mL.

`Cc1ncc([N+](=O)[O-])n1CCO` [Metronidazole] gave an MIC [2, 9] of 64 µg/mL, an MIC [2, 10] of 64 µg/mL and an FIC ([2]; pair 4m + Metronidazole) of 0.5. The “Fold change of MIC (reduction)” value ([2]; pair 4m + Metronidazole) was “×2↓”, the “MIC Combination” value [2, 8] was 32 µg/mL and the FIC ([2]; pair Ebselen + Metronidazole) was 0.5. The “Fold change of MIC (reduction)” value ([2]; pair Ebselen + Metronidazole) was “×2↓” and the “MIC Combination” value [2, 13] was 32 µg/mL.

`O=c1c2ccccc2[se]n1-c1ccccc1` [compound 1, N-phenyl-1,2-benzisoselenazol-3(2H)-one] gave an MIC [2, 9] of 0.857 µg/mL, an MIC [2, 10] of 0.857 µg/mL and an MIC ([2]; H. pylori 2CML, single agent, read-out: MIC alone) of 3.12 µM. For the same compound, the FIC ([2]; pair Ebselen + Clarithromycin) was 0.5, the FICI ([2]; pair Ebselen + Clarithromycin) was 1 and the Interpretation ([2]; pair Ebselen + Clarithromycin) was “Additive (>0.5 but ≤1 as additivity)”. For the same compound, the “MIC Combination” value [2, 11] was 0.429 µg/mL, the FIC ([2]; pair Ebselen + Levofloxacin) was 0.5 and the FICI ([2]; pair Ebselen + Levofloxacin) was 1. The Interpretation ([2]; pair Ebselen + Levofloxacin) was “Additive (>0.5 but ≤1 as additivity)”, the “MIC Combination” value [2, 12] was 0.429 µg/mL and the FIC ([2]; pair Ebselen + Metronidazole) was 0.5. For the same compound, the FICI ([2]; pair Ebselen + Metronidazole) was 1, the Interpretation ([2]; pair Ebselen + Metronidazole) was “Additive (>0.5 but ≤1 as additivity)” and the “MIC Combination” value [2, 13] was 0.429 µg/mL. For the same compound, the IC50 [1, 4] was 742 ± 41 nM and the IC50 [3] was 29.2 ± 3.1 nM.

With `O=c1c2ccccc2[se]n1Cc1ccccc1` [compound 3] the IC50 ([1]; Helicobacter pylori, ATCC51932, live cells of H. pylori Tx30a, read-out: IC50, H. pylori whole-cell ureolysis) was 151 ± 5.7 nM.

With “N-(4-chloro-2-fluorophenyl)-1,2-benzisoselenazol-3(2H)-one [compound 2, reference compound]” the IC50 ([1]; live cells of H. pylori Tx30a, read-out: IC50, H. pylori whole-cell ureolysis) was 337 nM.

— paper PMC11995230 (ACS Medicinal Chemistry Letters, 2025)
